Values of other authors as cited in US11252971B2, “Antimicrobial packaging films” (Cryovac, LLC, priority 2017, dated 2022).

Settings: GRAS by the U.S. Food and Drug Administration

In the case of `CCCCCCCCCCCC(=O)N[C@@H](CCCNC(=N)N)C(=O)OCC.Cl` [LAE, ethyl-N^α-dodecanoyl-L-arginate.HCl], the Toxicity is listed as “nontoxic”.
